In patent US7635467B2, “Mammalian multipotent stem cells and compositions, methods of preparation and methods of administration thereof” (The Board of Trustees of the University of Illinois, priority 2002, dated 2009):
“Also recorded” adds a separate entry of the source.

Assays:
[1] = test system: human MeSCs; assay: Co-culture of BrdU-treated human MeSCs with differentiated NSCs, immunocytochemistry for bIII-tubulin and GFAP; assay type: cell-based; conditions: MeSCs treated with 10 μM BrdU for 5 days; seven days post-coculture
[2] = test system: Genomic DNA from human MeSCs; assay: Methylation-sensitive restriction enzyme (HpaII) digestion of genomic DNA from BrdU-treated MeSCs; conditions: 0, 1 and 10 μM BrdU for 72 hr; dose-dependent
[3] = test system: human MNSCs; assay: Exposure of human MNSC cultures to recombinant reelin; assay type: cell-based
Excerpt: The cell cluster is composed of undifferentiated cultured cells with migrating and differentiating cells forming the leading outer processes.

[4] = test system: human MNSCs; assay: Differentiation of human MNSCs treated with recombinant sAPP, serum-free conditions; assay type: cell-based
Protocol: To investigate whether 22C11-induced inhibition of human MNSC differentiation occurs through the sequestering of sAPP or by blocking the N-terminal domain of APP on the membrane of differentiating cells, human MNSCs were treated with exogenous sAPP. Recombinant human sAPP was produced in yeast, which contains 95% sAPP695T (ending at amino acid 505 of 695) and 5% sAPP695.
The cell population of sAPP-treated human MNSCs at 5 DIV under the serum-free differentiation condition was also characterized by double immunofluorescence labeling of GFAP and bIII tubulin (FIG. 29). Treatment with sAPP dose dependently (25, 50, 100 ng/ml) increased the population of GFAP positive cells from an average of 45% in controls (no sAPP) to an average of 83% using the highest concentration of sAPP (100 ng/ml at 5 DIV).

Question: Which results are given for O=c1[nH]c(=O)n([C@H]2C[C@H](O)[C@@H](CO)O2)cc1Br [BrdU, 5-bromo-2-deoxyuridine]?
Answer: GFAP-immunopositive large flattened multipolar cells, of total cells [1]: approximately 60%; bIII-tubulin immunopositive small bipolar and unipolar cells, of total cells [1]: approximately 40%; HpaII digestion of genomic DNA (size of DNA fragments) [2]: prevented enzyme digestion; also recorded: prevents methylation-sensitive restriction enzyme digestion of DNA

Question: Which results are given for “recombinant reelin: large extracellular matrix (ECM) protein of approximately 400 kDa”?
Answer: mobility of cells in the cluster ([3]; addition of recombinant reelin to NSCs in culture): increased mobility of cells; behaviour of processes of differentiating human MNSC cultures ([3]; exposure to recombinant reelin): immediately retract their processes back to the cell cluster

Question: What does the source list for “sAPP: Recombinant human sAPP produced in yeast, contains 95% sAPP695T (ending at amino acid 505 of 695) and 5% sAPP695”?
Answer: population of GFAP positive cells ([4]; 100 ng/ml at 5 DIV, serum-free, 45% in controls): 83%; bIII-tubulin-positive neurons in total population of differentiated human MNSCs ([4]; highest concentration of sAPP, 5 DIV, serum-free, 51% in controls): 13%; differentiation pattern (GFAP / bIII-tubulin staining) compared to control ([4]; low doses of sAPP (e.g., 25 ng/ml), 5 DIV, serum-free): increased glial (red) and neuronal (green) differentiation; TUNEL signal in human MNSCs ([4]; sAPP treatment): did not increase the TUNEL signal; differentiation of human MNSCs ([4]; serum-free differentiation conditions, 25, 50 and 100 ng/ml, 5 days, dose-dependent): differentiated human MNSCs; also recorded: increased the differentiation
